Reference: ChEMBL document CHEMBL1154412, “In vitro activity of telavancin against gram-positive clinical isolates recently obtained in Europe” (Antimicrob Agents Chemother, 2007)

Legend:
Assay type in all cases: functional
[1] = tested on: Staphylococcus aureus; test: Antimicrobial activity against methicillin-susceptible Staphylococcus aureus after 20 to 24 hrs by broth microdilution method
[2] = tested on: Staphylococcus aureus; test: Antimicrobial activity against methicillin-resistant Staphylococcus aureus after 20 to 24 hrs by broth microdilution method
[3] = tested on: Staphylococcus; test: Antimicrobial activity against methicillin-susceptible coagulase-negative Staphylococcus after 20 to 24 hrs by broth microdilution method
[4] = tested on: Staphylococcus; test: Antimicrobial activity against methicillin-resistant coagulase-negative Staphylococcus after 20 to 24 hrs by broth microdilution method
[5] = tested on: Enterococcus faecalis; test: Antimicrobial activity against vancomycin-susceptible Enterococcus faecalis after 20 to 24 hrs by broth microdilution method
[6] = tested on: Enterococcus faecalis; test: Antimicrobial activity against vancomycin-resistant Enterococcus faecalis after 20 to 24 hrs by broth microdilution method
[7] = tested on: Enterococcus faecium; test: Antibacterial activity against vancomycin-susceptible Enterococcus faecium after 20 to 24 hrs by broth microdilution method
[8] = tested on: Enterococcus faecium; test: Antibacterial activity against vancomycin-resistant Enterococcus faecium after 20 to 24 hrs by broth microdilution method
[9] = tested on: Streptococcus pneumoniae; test: Antibacterial activity against penicillin-susceptible Streptococcus pneumoniae after 20 to 24 hrs by broth microdilution method
[10] = tested on: Streptococcus pneumoniae; test: Antibacterial activity against penicillin-intermediate Streptococcus pneumoniae after 20 to 24 hrs by broth microdilution method
[11] = tested on: Streptococcus pneumoniae; test: Antibacterial activity against penicillin-resistant Streptococcus pneumoniae after 20 to 24 hrs by broth microdilution method
[12] = tested on: Streptococcus sp. 'group A'; test: Antimicrobial activity against Streptococcus group A after 20 to 24 hrs by broth microdilution method
[13] = tested on: Streptococcus sp. 'group B'; test: Antimicrobial activity against Streptococcus group B after 20 to 24 hrs by broth microdilution method
[14] = tested on: Streptococcus viridans; test: Antimicrobial activity against Streptococcus viridans after 20 to 24 hrs by broth microdilution method

CN[C@H](CC(C)C)C(=O)N[C@H]1C(=O)N[C@@H](CC(N)=O)C(=O)N[C@H]2C(=O)N[C@H]3C(=O)N[C@H](C(=O)N[C@H](C(=O)O)c4cc(O)cc(O)c4-c4cc3ccc4O)[C@H](O)c3ccc(c(Cl)c3)Oc3cc2cc(c3O[C@@H]2O[C@H](CO)[C@@H](O)[C@H](O)[C@H]2O[C@H]2C[C@](C)(N)[C@H](O)[C@H](C)O2)Oc2ccc(cc2Cl)[C@H]1O [VANCOMYCIN]
512 µg/mL: MIC50 [6] | MIC50 [8] | MIC90 [8]
> 512 µg/mL: MIC90 [6]
1 µg/mL: MIC90 [1] | MIC50 [2] | MIC90 [2] | MIC50 [3] | MIC50 [4] | MIC50 [7] | MIC90 [7] | MIC90 [14]
2 µg/mL: MIC90 [3] | MIC90 [4] | MIC50 [5] | MIC90 [5]
0.5 µg/mL: MIC50 [1] | MIC90 [9] | MIC90 [10] | MIC90 [11] | MIC90 [12] | MIC50 [13] | MIC90 [13] | MIC50 [14]
0.25 µg/mL: MIC [9] | MIC50 [9] | MIC [10] | MIC50 [10] | MIC [11] | MIC50 [11] | MIC [12] | MIC50 [12]

CCCCCCCCCC(=O)N[C@@H](Cc1c[nH]c2ccccc12)C(=O)N[C@H](CC(N)=O)C(=O)N[C@@H](CC(=O)O)C(=O)N[C@@H]1C(=O)NCC(=O)N[C@@H](CCCN)C(=O)N[C@@H](CC(=O)O)C(=O)N[C@H](C)C(=O)N[C@@H](CC(=O)O)C(=O)NCC(=O)N[C@H](CO)C(=O)N[C@@H]([C@H](C)CC(=O)O)C(=O)N[C@@H](CC(=O)c2ccccc2N)C(=O)O[C@@H]1C
0.25 µg/mL: MIC50 [1] | MIC90 [9] | MIC90 [10] | MIC50 [13] | MIC90 [13]
4 µg/mL: MIC90 [7]
0.12 µg/mL: MIC50 [9] | MIC50 [10] | MIC50 [11] | MIC90 [11]
1 µg/mL: MIC90 [3] | MIC50 [5] | MIC90 [14]
0.06 µg/mL: MIC50 [12] | MIC90 [12]
0.5 µg/mL: MIC90 [1] | MIC50 [2] | MIC90 [2] | MIC50 [3] | MIC50 [4] | MIC90 [4] | MIC [6] | MIC50 [6] | MIC50 [14]
2 µg/mL: MIC90 [5] | MIC90 [6] | MIC50 [7] | MIC50 [8] | MIC90 [8]
